Columns and labels:
active caspase-3 = experiment: Kainic acid (KA)-induced neuronal apoptosis in mice (active caspase-3 immunoblotting); type: in vivo, mouse; conditions: 5 mg/kg oral
Description: C57BL/6J mice were orally administrated with 5 mg/kg of 4′-DMA-7,8-DHF and 7,8-DHF; at different time points, the mice were ip injected with 20 mg/kg KA for 2 h. The brain lysates were analyzed by immunoblotting with anti-p-TrkB, antiactive caspase-3 antibodies, respectively.
Male C57BL/6 mice aged of 60 days were orally injected with a single dose of 4′-DMA-7,8-DHF or 7,8-DHF ([…]). KA (20 mg/kg) (Sigma, MO) was i.p. injected. Animals were continually monitored for 2 h for the onset of seizure activity. At 0, 4 and 8 h following TrkB agonist treatment, the animals were sacrificed and the hippocampal section lysates were analyzed by immunoblotting with p-TrkB, active caspase-3 and total TrkB antibodies.
To quantitatively compare the anti-apoptotic activity by these two TrkB agonists, cortical neurons were pretreated with various concentrations of 4′-DMA-7,8-DHF and 7,8-DHF for 30 min, followed by […] for 16 h. Cell lysates were quantitatively analyzed with an active caspse-3 ELISA. […] To investigate whether these compounds exert any neuroprotective effects in animals, both compounds (5 mg/kg) were orally injected into mice. At 0, 2 h or 6 h, kainic acid (KA)(20 mg/kg) was administered intraperitoneally. At 2 h, mice were sacrificed and hippocampal regions were prepared. […] This kinetic spectrum tightly coupled to the TrkB activation status observed when treated with 7,8-DHF (FIG. 3C, right panel).

[1] = system: dentate gyrus progenitor proliferation; experiment: Neurogenesis assay (BrdU positive cells in dentate gyrus); type: in vivo, mouse; conditions: 5 mg/kg oral for 21 days, BrdU 50 mg/kg i.p., 2 h
Description: 4′-Dimethylamino-7,8-dihydroxyflavone and 7,8-dihydroxyflavone promote neurogenesis. Male C57BL/6J mice were orally administrated with 5 mg/kg 4′-DMA-7,8-DHF and 7,8-DHF and vehicle solvent for 21 days and followed by 50 mg/kg BrdU ip injection. In 2 h, the mice were perfused and brain sections were immunostained with anti-BrdU and DAPI. The positive cells in dentate gyms were highlighted by arrow (left panels). Quantitative analysis of the BrdU positive cells in dentate gyms (right panel).
Adult male mice (2-3 months old) were orally injected with Saline, 4′-DMA-7,8-DHF and 7,8-DHF (5 mg/kg) for 21 days. Then Brdu (50 mg/kg) was i.p. injected. In 2 h, the mice were perfused with 4% paraformaldehyde. Immunohistochemical staining was performed on formalin-fixed paraffin-embedded sections. Sections from brain were cut, deparaffinized in xylene and rehydrated in graded alcohols. The slides were boiled in 10 mM citric acid (pH 6.0) for 10 min followed by an incubation in 2 N HCl for 10 min in room temperature. The slides were then permeabilized and blocked with 1% BSA in 0.2% PBST. The incorporated BrdU were stained using anti-BrdU-FITC (Abcam, USA) at 4° C. for 16 hr. […] The slides were finally mounted with AquaMount (Lerner Laboratories, USA) containing 0.01% 1,4-diazobicyclo(2,2,2)octane and examined under a fluorescence microscope. […]

Akt and MAPK = experiment: Downstream p-Akt / p-MAPK signaling in mouse brain after oral administration (immunoblotting, p-Akt ELISA); type: in vivo; conditions: 1 mg/kg oral; for Akt and MAPK activation (TrkB signaling) in mouse brain at 2 h: C57BL/6J mice, p-Akt 473 and p-MAPK immunoblotting
Description: The data were from two sets of replicated experiments.
1 mg/kg of various compounds were orally administrated into C57 BL/6J mice and TrkB phosphorylation and its downstream signaling cascades including Akt and MAPK in mouse brain were analyzed by immunoblotting at 2 h.
The brain lysates were prepared and analyzed with p-Akt ELISA kit.
The compounds were orally injected (1 mg/kg) into C57BL/6J mice. The TrkB and its downstream signaling cascades activation at 2 h were examined after drug administration with mouse brain tissues. […] The downstream p-Akt and p-MAPK tightly coupled to p-TrkB signals.

SMILES	KA-induced caspase-3 activation at 4 h (active caspase-3; KA 20 mg/kg i.p., 4 h)	active caspase-3 at 8 h (active caspase-3; KA 20 mg/kg i.p., 8 h)	neurogenesis (BrdU) compared to vehicle control [1]	Akt and MAPK activation (TrkB signaling) in mouse brain at 2 h (Akt and MAPK)	Akt activation in mouse brain (p-Akt ELISA), compared with compound i (Akt and MAPK; brain lysates, time course)	KA-induced neuronal apoptosis over time after dosing (active caspase-3; KA 20 mg/kg i.p. at 0, 2 h or 6 h, hippocampal lysates)
O=c1cc(-c2ccccc2)oc2c(O)c(O)ccc12 [7,8-DHF, 7,8-dihydroxyflavone, reference compound]	reduced	slightly increased	significantly increased neurogenesis	–	–	–
CN(C)c1ccc(-c2cc(=O)c3ccc4nc[nH]c4c3o2)cc1 [compound m, 8-(4-(dimethylamino)phenyl)chromeno[7,8-d]imidazol-6(1H)-one]	–	–	–	potently activated TrkB signaling in mouse brain	more robust and sustained Akt activation than compound i	–
CN(C)c1ccc(-c2cc(=O)c3ccc(O)c(O)c3o2)cc1 [4′-DMA-7,8-DHF, 4′-dimethylamino-7,8-dihydroxyflavone]	–	–	significantly increased neurogenesis	potently activated TrkB signaling in mouse brain	–	gradually decreased over time

Source: patent publication US9504674B2, “TrkB agonists and methods of use” (EMORY UNIVERSITY, priority 2010, dated 2016)
